US10583178B2, “Compositions comprising sulforaphane or a sulforaphane precursor and a mushroom extract or powder” (NUTRAMAX LABORATORIES, INC., priority 2012, dated 2020)
Values belong to the compound of their own block, whether it stands above or below them.

Tests used:
[1] = test system: NAD(P)H:quinone oxidoreductase (NQO1); conditions: oral administration, mammary epithelium; cited from earlier work
heme oxygenase-1 (HO-1) = conditions: oral administration, mammary epithelium; cited from earlier work
[2] = test system: Nad(P)H:quinone oxidoreductase 1 (NQO-1) gene expression; test: NQO-1 gene expression by quantitative RT-PCR in macrophage cell line RAW 264.7; type: cell-based; conditions: 0.5 μM SFN, RAW 264.7, 24 hours
Procedure: The following study was conducted to determine the effect of the combination of sulforaphane and a maitake mushroom extract containing 20% β-glucans on gene expression of Nad(P)H:quinone oxidoreductase 1 (NQO-1). NQO-1 encodes a protein that is able to metabolize estrogen quinones, preventing them from forming DNA adducts that cause mutations and ultimately carcinogenesis. An increase in NQO-1 expression is favorable for breast, colon, liver, lung, skin and prostate health.
In the study, the macrophage cell line RAW 264.7 was treated with DMSO (vehicle control), sulforaphane (SFN), maitake mushroom extract having about 20% beta-glucan content (Maitake), or the combination of sulforaphane and maitake mushroom extract, for 24 hours. […] Gene expression of NQO-1 gene expression was analyzed via quantitative RT-PCR. The results, which are depicted in FIG. 5, show the following: […]
In the study, the macrophage cell line RAW 264.7 was treated with DMSO (vehicle control), sulforaphane (SFN), shiitake mushroom extract having at least 20% alpha-glucan content (Shiitake), or the combination of sulforaphane and shiitake mushroom extract, for 24 hours. […] Gene expression of NQO-1 gene expression was analyzed via quantitative RT-PCR. […]

[3] = test system: broccoli sprout-derived myrosinase; test: Consumption of glucoraphanin by myrosinase as a function of ascorbic acid concentration; type: biochemical; conditions: 38° C.
Procedure: About 250 mg of broccoli seed extract containing about 12% (w/w) glucoraphanin were subjected to hydrolysis by a fixed concentration of broccoli sprout-derived myrosinase in the presence of variable concentration of ascorbic acid, ranging from 0 to 600 μmoles/Liter. The reaction mixtures were thermostated at 38° C.; aliquots were withdrawn every 15 minutes for 60 minutes, and concentration of glucoraphanin determined chromatographically. The rate of glucoraphanin consumption was interpreted as the rate its conversion to sulforaphane. Graphical representation of glucoraphanin content reduction as a function of increasing ascorbic acid concentration results in a series of linear plots; the slopes of the linear regression lines reflect the rate of glucoraphanin consumption, in moles/minute. It is apparent that in the presence of 600 μmoles/Liter concentration of ascorbic acid, the reaction rate increased 13-fold relative to that which proceeded in the absence of modulatory effects of ascorbic acid.

myrosinase = test: Conversion of glucoraphanin to sulforaphane in Simulated Intestinal Fluid; type: biochemical, broccoli; conditions: 38° C., 0.25 to 1.00 mmol/Liter, especially at earlier stages
Procedure: Simulated Intestinal Fluid (SIF) powder, a commercially supplied concentrate closely approximating the human intestinal content in terms of composition, pH and ionic strength, was used. The experiment utilized a USP Dissolution Apparatus 2 (paddles), where into six dissolution vessels 500 mL of Simulated Intestinal Fluid was dispensed, along with 150 mg of freeze-dried broccoli sprout powder as a source of myrosinase. […] Aliquots were withdrawn every 15 minutes, and assayed for sulforaphane.

SMILES: C[S+]([O-])CCCCN=C=S (stereo not shown) [SFN, 1-isothiocyanato-4-methylsulfinylbutane]
increase in NQO1 enzymatic activity [1]: 3 fold | elevated immunostaining of HO-1 (heme oxygenase-1 (HO-1)): 4 fold | Fold Increase in NQO-1 gene expression [2]: 12.96 fold

relation of sulforaphane yield to ascorbic acid concentration (myrosinase): direct correlation
SMILES: O=C1O[C@H]([C@@H](O)CO)C(O)=C1O [Ascorbic Acid, ascorbic acid]
glucoraphanin content ([3]; 50 μM ascorbic acid, 0 min): 93.36 µmol | glucoraphanin content ([3]; 50 μM ascorbic acid, 15 min): 89.20 µmol | glucoraphanin content ([3]; 50 μM ascorbic acid, 30 min): 84.24 µmol | glucoraphanin content ([3]; 50 μM ascorbic acid, 45 min): 80.30 µmol | glucoraphanin content ([3]; 50 μM ascorbic acid, 60 min): 76.36 µmol | glucoraphanin content ([3]; 125 μM ascorbic acid, 0 min): 93.36 µmol | glucoraphanin content ([3]; 125 μM ascorbic acid, 15 min): 84.52 µmol | glucoraphanin content ([3]; 125 μM ascorbic acid, 30 min): 75.92 µmol | glucoraphanin content ([3]; 125 μM ascorbic acid, 45 min): 68.09 µmol | glucoraphanin content ([3]; 125 μM ascorbic acid, 60 min): 59.41 µmol | glucoraphanin content ([3]; 250 μM Filtered ascorbic acid, 0 min): 93.36 µmol | glucoraphanin content ([3]; 250 μM Filtered ascorbic acid, 15 min): 86.31 µmol | glucoraphanin content ([3]; 250 μM Filtered ascorbic acid, 30 min): 79.44 µmol | glucoraphanin content ([3]; 250 μM Filtered ascorbic acid, 45 min): 71.94 µmol | glucoraphanin content ([3]; 250 μM Filtered ascorbic acid, 60 min): 65.18 µmol | glucoraphanin content ([3]; 250 μM ascorbic acid, 0 min): 93.36 µmol | glucoraphanin content ([3]; 250 μM ascorbic acid, 15 min): 80.95 µmol | glucoraphanin content ([3]; 250 μM ascorbic acid, 30 min): 69.06 µmol | glucoraphanin content ([3]; 250 μM ascorbic acid, 45 min): 57.63 µmol | glucoraphanin content ([3]; 250 μM ascorbic acid, 60 min): 45.76 µmol | glucoraphanin content ([3]; 400 μM ascorbic acid, 0 min): 93.36 µmol | glucoraphanin content ([3]; 400 μM ascorbic acid, 15 min): 78.32 µmol | glucoraphanin content ([3]; 400 μM ascorbic acid, 30 min): 62.78 µmol | glucoraphanin content ([3]; 400 μM ascorbic acid, 45 min): 47.67 µmol | glucoraphanin content ([3]; 400 μM ascorbic acid, 60 min): 33.15 µmol | glucoraphanin content ([3]; 600 μM ascorbic acid, 0 min): 93.36 µmol | glucoraphanin content ([3]; 600 μM ascorbic acid, 15 min): 75.02 µmol | glucoraphanin content ([3]; 600 μM ascorbic acid, 30 min): 55.66 µmol | glucoraphanin content ([3]; 600 μM ascorbic acid, 45 min): 37.50 µmol | glucoraphanin content ([3]; 600 μM ascorbic acid, 60 min): 22.09 µmol
